From US8603550B1, “Compositions for topical treatment” (priority 2013, dated 2013) come the findings set out here.

In test [1] the test system is Staphylococcus aureus ATCC 33592 (MRSA). Kind of test: Zone of inhibition test (agar well). The format is cell-based. The settings on record: S. aureus ATCC 33592 (methicillin resistant); 7 mm well, 37° C., 24 hours. As to the method:
(§1) An overnight culture of the test organism is diluted to 0.40 OD at 600 nm and then further diluted 10^−2 to obtain approximately 3×10^6 CFU/ml for the inoculation of TSA or SDA plates as follows: a 0.5 ml volume is spread across the surface of a sterile agar plate and allowed to dry. A 7 mm well is made in the center of the agar plate and approximately 0.2 ml of product is pipetted into the well. Additionally, Finipil is tested against S. aureus. The plates are incubated at 37° C. for 24 hours and the zones of inhibition are determined by measuring the diameter of the clear circular area around the product filled well.
(§2) *Becton Dickinson BBL Cefoxitin 30 microgram Sensi-Disk® sensitivity disks will be used to indicate susceptibility to Methicillin

The subject of test [2] is Staphylococcus aureus ATCC 6538 (MSSA). Kind of test: Zone of inhibition test (agar well). The format is cell-based. The conditions noted are these: S. aureus ATCC 6538; 7 mm well, about 0.2 ml product, 37° C., 24 hours. As to the method:
as §1, §2

On to `CO[C@@]1(NC(=O)Cc2cccs2)C(=O)N2C(C(=O)O)=C(COC(N)=O)CS[C@@H]21` [Cefoxitin disk, Cefoxitin], for which the “Zone of inhibition (diameter)” value in test [1] is 10 mm; in test [2], 33 mm.
